According to PubChem BioAssay (NCI):
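Following 48 hours of exposure in 96-well plates, responses at five concentrations were used to interpolate endpoints linearly. The concentration for 50% growth inhibition is given as GI50. TGI marks complete inhibition of growth.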

Experiments:
Assay in all cases: growth of human tumour cells (NCI), 48 h
786-0 renal = test system: 786-0 renal
A498 renal = test system: A498 renal
A549 NSCLC = test system: A549 NSCLC
ACHN renal = test system: ACHN renal
BT-549 breast = test system: BT-549 breast
CAKI-1 renal = test system: CAKI-1 renal
COLO 205 colon = test system: COLO 205 colon
DU-145 prostate = test system: DU-145 prostate
EKVX NSCLC = test system: EKVX NSCLC
HCC-2998 colon = test system: HCC-2998 colon
HCT-116 colon = test system: HCT-116 colon
HCT-15 colon = test system: HCT-15 colon
HL-60(TB) leukemia = test system: HL-60(TB) leukemia
HOP-62 NSCLC = test system: HOP-62 NSCLC
HOP-92 NSCLC = test system: HOP-92 NSCLC
HS 578T breast = test system: HS 578T breast
HT29 colon = test system: HT29 colon
IGROV1 ovarian = test system: IGROV1 ovarian
K-562 leukemia = test system: K-562 leukemia
KM12 colon = test system: KM12 colon
LOX IMVI melanoma = test system: LOX IMVI melanoma
M14 melanoma = test system: M14 melanoma
MALME-3M melanoma = test system: MALME-3M melanoma
MCF7 breast = test system: MCF7 breast
MDA-MB-231 breast = test system: MDA-MB-231 breast
MDA-MB-435 = test system: MDA-MB-435
MOLT-4 leukemia = test system: MOLT-4 leukemia
NCI-H226 lung = test system: NCI-H226 lung
NCI-H23 lung = test system: NCI-H23 lung
NCI-H460 lung = test system: NCI-H460 lung
NCI-H522 lung = test system: NCI-H522 lung
NCI/ADR-RES ovarian = test system: NCI/ADR-RES ovarian
OVCAR-3 ovarian = test system: OVCAR-3 ovarian
OVCAR-4 ovarian = test system: OVCAR-4 ovarian
OVCAR-5 ovarian = test system: OVCAR-5 ovarian
OVCAR-8 ovarian = test system: OVCAR-8 ovarian
PC-3 prostate = test system: PC-3 prostate
RPMI-8226 leukemia = test system: RPMI-8226 leukemia
RXF 393 renal = test system: RXF 393 renal
SF-268 CNS = test system: SF-268 CNS
SF-295 CNS = test system: SF-295 CNS
SF-539 CNS = test system: SF-539 CNS
SK-MEL-2 melanoma = test system: SK-MEL-2 melanoma
SK-MEL-28 melanoma = test system: SK-MEL-28 melanoma
SK-MEL-5 melanoma = test system: SK-MEL-5 melanoma
SK-OV-3 ovarian = test system: SK-OV-3 ovarian
SN12C renal = test system: SN12C renal
SNB-19 CNS = test system: SNB-19 CNS
SNB-75 CNS = test system: SNB-75 CNS
SR leukemia = test system: SR leukemia
SW-620 colon = test system: SW-620 colon
T-47D breast = test system: T-47D breast
TK-10 renal = test system: TK-10 renal
U251 CNS = test system: U251 CNS
UACC-257 melanoma = test system: UACC-257 melanoma
UACC-62 melanoma = test system: UACC-62 melanoma
UO-31 renal = test system: UO-31 renal

Question: Which results are given for `O=C(Nc1cccc(-n2ccc3c(NC(=O)c4ccccc4)nccc32)c1)c1ccc(Cl)c(Cl)c1`?
Answer: GI50 (786-0 renal): 242 nM; TGI (786-0 renal): 1590 nM; GI50 (A498 renal): 130 nM; TGI (A498 renal): 735 nM; GI50 (A549 NSCLC): 136 nM; TGI (A549 NSCLC): 1710 nM; GI50 (ACHN renal): 177 nM; TGI (ACHN renal): 1710 nM; GI50 (BT-549 breast): 214 nM; TGI (BT-549 breast): 1260 nM; GI50 (CAKI-1 renal): 53.1 nM; TGI (CAKI-1 renal): 1900 nM; GI50 (COLO 205 colon): 124 nM; TGI (COLO 205 colon): 517 nM; GI50 (DU-145 prostate): 220 nM; TGI (DU-145 prostate): 855 nM; GI50 (EKVX NSCLC): 704 nM; TGI (EKVX NSCLC): 3340 nM; GI50 (HCC-2998 colon): 286 nM; TGI (HCC-2998 colon): 1270 nM; GI50 (HCT-116 colon): 98.9 nM; TGI (HCT-116 colon): 1220 nM; GI50 (HCT-15 colon): 87.9 nM; TGI (HCT-15 colon): 1310 nM; GI50 (HL-60(TB) leukemia): 188 nM; TGI (HL-60(TB) leukemia): 977 nM; GI50 (HOP-62 NSCLC): 240 nM; TGI (HOP-62 NSCLC): 1870 nM; GI50 (HOP-92 NSCLC): 130 nM; TGI (HOP-92 NSCLC): 2120 nM; GI50 (HS 578T breast): 82.2 nM; TGI (HS 578T breast): 1310 nM; GI50 (HT29 colon): 83.3 nM; TGI (HT29 colon): 840 nM; GI50 (IGROV1 ovarian): 250 nM; TGI (IGROV1 ovarian): 1900 nM; GI50 (K-562 leukemia): 55.1 nM; GI50 (KM12 colon): 55.4 nM; TGI (KM12 colon): 942 nM; GI50 (LOX IMVI melanoma): 219 nM; TGI (LOX IMVI melanoma): 1570 nM; GI50 (M14 melanoma): 117 nM; TGI (M14 melanoma): 802 nM; GI50 (MALME-3M melanoma): 242 nM; TGI (MALME-3M melanoma): 2270 nM; GI50 (MCF7 breast): 40 nM; TGI (MCF7 breast): 1430 nM; GI50 (MDA-MB-231 breast): 302 nM; TGI (MDA-MB-231 breast): 1340 nM; GI50 (MDA-MB-435): 27.5 nM; TGI (MDA-MB-435): 103 nM; GI50 (MOLT-4 leukemia): 634 nM; GI50 (NCI-H226 lung): 568 nM; TGI (NCI-H226 lung): 3650 nM; GI50 (NCI-H23 lung): 342 nM; TGI (NCI-H23 lung): 2470 nM; GI50 (NCI-H460 lung): 158 nM; TGI (NCI-H460 lung): 1080 nM; GI50 (NCI-H522 lung): 78.6 nM; TGI (NCI-H522 lung): 1220 nM; GI50 (NCI/ADR-RES ovarian): 86.5 nM; TGI (NCI/ADR-RES ovarian): 380 nM; GI50 (OVCAR-3 ovarian): 41.3 nM; TGI (OVCAR-3 ovarian): 162 nM; GI50 (OVCAR-4 ovarian): 611 nM; TGI (OVCAR-4 ovarian): 2000 nM; GI50 (OVCAR-5 ovarian): 476 nM; TGI (OVCAR-5 ovarian): 1710 nM; GI50 (OVCAR-8 ovarian): 274 nM; TGI (OVCAR-8 ovarian): 1860 nM; GI50 (PC-3 prostate): 96.5 nM; TGI (PC-3 prostate): 1520 nM; GI50 (RPMI-8226 leukemia): 263 nM; TGI (RPMI-8226 leukemia): 1160 nM; GI50 (RXF 393 renal): 106 nM; TGI (RXF 393 renal): 639 nM; GI50 (SF-268 CNS): 190 nM; TGI (SF-268 CNS): 2180 nM; GI50 (SF-295 CNS): 64.5 nM; TGI (SF-295 CNS): 1310 nM; GI50 (SF-539 CNS): 197 nM; TGI (SF-539 CNS): 952 nM; GI50 (SK-MEL-2 melanoma): 1120 nM; TGI (SK-MEL-2 melanoma): 2790 nM; GI50 (SK-MEL-28 melanoma): 298 nM; TGI (SK-MEL-28 melanoma): 2060 nM; GI50 (SK-MEL-5 melanoma): 71.9 nM; TGI (SK-MEL-5 melanoma): 347 nM; GI50 (SK-OV-3 ovarian): 95.6 nM; TGI (SK-OV-3 ovarian): 1100 nM; GI50 (SN12C renal): 380 nM; TGI (SN12C renal): 1780 nM; GI50 (SNB-19 CNS): 219 nM; TGI (SNB-19 CNS): 1890 nM; GI50 (SNB-75 CNS): 147 nM; TGI (SNB-75 CNS): 1220 nM; GI50 (SR leukemia): 40.8 nM; GI50 (SW-620 colon): 106 nM; TGI (SW-620 colon): 1480 nM; GI50 (T-47D breast): 1320 nM; TGI (T-47D breast): 2850 nM; GI50 (TK-10 renal): 865 nM; TGI (TK-10 renal): 2280 nM; GI50 (U251 CNS): 87.5 nM; TGI (U251 CNS): 1600 nM; GI50 (UACC-257 melanoma): 1200 nM; TGI (UACC-257 melanoma): 2980 nM; GI50 (UACC-62 melanoma): 53.5 nM; TGI (UACC-62 melanoma): 1630 nM; GI50 (UO-31 renal): 573 nM; TGI (UO-31 renal): 2180 nM
